Test results: patent US6136992A, “2-alkoxy estradiols and derivatives thereof” (The United States of America as represented by the …, priority 1998, dated 2000)
Read-outs that look alike come from different tables or passages of the source.

What was measured:
[1] = test system: HOP-62 non-small-cell lung cancer cells; assay: NCI in vitro anticancer screen, HOP-62 non-small-cell lung cancer; format: cell-based; conditions: Homo sapiens
Description: (§1) The effects of the analogs on cancer cell growth was investigated in the National Cancer Institute (NCI) Developmental Therapeutics Program's in vitro panel of approximately 55 cell lines (Grever et al., Seminars in Oncology 19:622 (1992), Alley et al., Cancer Research 48:589 (1988) and Montes et al., J. National Cancer Institute 83:757 (1991)). Representative results are listed in Table 1 for HOP-62 non-small-cell lung cancer cells, HCT-116 colon cancer cells, SF-539 central nervous system (CNS) cancer cells, UACC-62 melanoma cells, OVCAR ovarian cancer cells, SN12-C renal cancer cells, DU-145 prostate cancer cells, and MDA-MB-435 breast cancer cells.
(§2) ^a The cytotoxicity GI50 values are the concentrations

[2] = test system: SF-539 central nervous system (CNS) cancer cells; assay: NCI in vitro anticancer screen, SF-539 CNS cancer; format: cell-based; conditions: Homo sapiens
Description: as §1, §2

[3] = test system: MDA-MB-435 breast cancer cells; assay: NCI in vitro anticancer screen, MDA-MB-435 breast cancer; format: cell-based; conditions: Homo sapiens
Description: The effects of the analogs on cancer cell growth was investigated in the National Cancer Institute (NCI) Developmental Therapeutics Program's in vitro panel of approximately 55 cell lines (Grever et al., Seminars in Oncology 19:622 (1992), Alley et al., Cancer Research 48:589 (1988) and Montes et al., J. National Cancer Institute 83:757 (1991)).

[4] = target: T1, estrogen receptor (Rattus norvegicus, UniProt P06211); assay: Estrogen binding affinity assay (comparative radiometric binding, rat uterine cytosol)
T1 construct: from tissue; host or cells: rat uterine cytosol
T1 sequence (P06211 1-600): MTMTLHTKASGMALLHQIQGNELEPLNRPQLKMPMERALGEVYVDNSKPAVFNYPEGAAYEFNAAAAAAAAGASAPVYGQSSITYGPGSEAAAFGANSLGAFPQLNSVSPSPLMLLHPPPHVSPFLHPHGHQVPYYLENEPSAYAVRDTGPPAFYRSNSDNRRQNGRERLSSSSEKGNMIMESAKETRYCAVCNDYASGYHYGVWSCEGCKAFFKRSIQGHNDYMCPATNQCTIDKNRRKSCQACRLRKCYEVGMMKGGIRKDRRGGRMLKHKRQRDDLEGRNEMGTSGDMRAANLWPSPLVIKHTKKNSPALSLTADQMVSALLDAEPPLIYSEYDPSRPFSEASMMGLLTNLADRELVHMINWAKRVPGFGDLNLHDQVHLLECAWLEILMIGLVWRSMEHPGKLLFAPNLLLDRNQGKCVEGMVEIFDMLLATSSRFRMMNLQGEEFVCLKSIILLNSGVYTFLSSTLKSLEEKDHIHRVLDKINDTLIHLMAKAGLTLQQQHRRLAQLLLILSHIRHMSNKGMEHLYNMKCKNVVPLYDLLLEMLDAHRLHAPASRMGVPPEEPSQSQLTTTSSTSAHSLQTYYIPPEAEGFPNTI
Method: The assay of (11), (12) and (16) were conducted at 0° C. for 20 hours, while those for (1) and (2) were performed at 0° C. for 18 hours.

[5] = test system: K562; assay: NCI screen, leukemia; format: cell-based; conditions: Homo sapiens, read-out: Log10 GI50, K562 (converted)
[6] = test system: MOLT-4; assay: NCI screen, leukemia; format: cell-based; conditions: Homo sapiens, read-out: Log10 GI50, MOLT-4 (converted)
[7] = test system: EKVX; assay: NCI screen, non-small cell lung cancer; format: cell-based; conditions: Homo sapiens, read-out: Log10 GI50, EKVX (converted)
[8] = test system: NCI-H23; assay: NCI screen, non-small cell lung cancer; format: cell-based; conditions: Homo sapiens, read-out: Log10 GI50, NCI-H23 (converted)
[9] = test system: HTC-15; assay: NCI screen, colon cancer; format: cell-based; conditions: Homo sapiens, read-out: Log10 GI50, HTC-15 (converted)
[10] = test system: LOX IMVI; assay: NCI screen, melanoma; format: cell-based; conditions: Homo sapiens, read-out: Log10 GI50, LOX IMVI (converted)
[11] = test system: M14; assay: NCI screen, melanoma; format: cell-based; conditions: Homo sapiens, read-out: Log10 GI50, M14 (converted)
[12] = test system: MCF7; assay: NCI screen, breast cancer; format: cell-based; conditions: Homo sapiens, read-out: Log10 GI50, MCF7 (converted)
[13] = test system: MCF7/ADR-RES; assay: NCI screen, breast cancer; format: cell-based; conditions: Homo sapiens, read-out: Log10 GI50, MCF7/ADR-RES (converted)
[14] = test system: MDA-N; assay: NCI screen, breast cancer; format: cell-based; conditions: Homo sapiens, read-out: Log10 GI50, MDA-N (converted)
[15] = test system: BT-549; assay: NCI screen, breast cancer; format: cell-based; conditions: Homo sapiens, read-out: Log10 GI50, BT-549 (converted)

SMILES: C[C@]12CC[C@@H]3c4cc(OCC(F)(F)F)c(O)cc4C(=NO)C[C@H]3[C@@H]1CC[C@@H]2O [Compound 12, 2-(2',2', 2'-Trifluoroethoxy)-6-Hydroximino-Estra-1,3,5(10)-Triene-3,17β-Diol]
- GI50 ([1]; HOP-62, read-out: cytotoxicity GI50, Lung HOP-62): < 10 nM
- GI50 ([1]; HOP-62, Non-Small Cell Lung Cancer, read-out: Log10 GI50, HOP-62 (converted)): < 10 nM
- GI50 ([2]; SF-539, CNS Cancer, read-out: Log10 GI50, SF-539 (converted)): < 10 nM
- GI50 ([2]; read-out: cytotoxicity GI50, CNS SF-539): < 10 nM
- GI50 ([3]; MDA-MB-435, read-out: cytotoxicity GI50, Breast MDA-MB-435): < 10 nM
- GI50 ([3]; MDA-MB-435, Breast Cancer, read-out: Log10 GI50, MDA-MB-435 (converted)): < 10 nM
- affinity for the estrogen receptor, in words [4]: very week affinity for the receptor
- GI50 [5]: < 10 nM
- GI50 [6]: < 10 nM
- GI50 [7]: < 10 nM
- GI50 [8]: < 10 nM
- GI50 [9]: < 10 nM
- GI50 [10]: < 10 nM
- GI50 [11]: < 10 nM
- GI50 [12]: < 10 nM
- GI50 [13]: < 10 nM
- GI50 [14]: < 10 nM
- GI50 [15]: < 10 nM
